Test systems include U251 CNS; MCF7 breast; NCI-H23 lung; HOP-62 NSCLC; SW-620 colon; SF-268 CNS; SK-MEL-2 melanoma; A549 NSCLC; CCRF-CEM leukemia; SK-MEL-28 melanoma; UACC-257 melanoma; SF-539 CNS; MOLT-4 leukemia; UO-31 renal; MDA-MB-231 breast; CAKI-1 renal; SNB-19 CNS; HOP-92 NSCLC; OVCAR-5 ovarian.
Assay in all cases: NCI-60 cell line screen, 48 h

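In this assay, cells in 96-well plates receive the compound at five concentrations for 48 hours. Endpoints are linearly interpolated between the surrounding concentrations. The concentration for full growth arrest is given as TGI.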

With `CCOC(=O)c1c(-c2ccccc2)nc2c(OC)nccn12`, the TGI in the assay on U251 CNS, in the assay with MCF7 breast, with NCI-H23 lung, in the assay on HOP-62 NSCLC, in the assay on SW-620 colon and in the assay with SF-268 CNS was > 100 µM each time. Moreover, the TGI with SK-MEL-2 melanoma, with A549 NSCLC, in the assay with CCRF-CEM leukemia, in the assay with SK-MEL-28 melanoma, in the assay on UACC-257 melanoma and in the assay with SF-539 CNS was > 100 µM each time. For the same compound, the TGI in the assay with MOLT-4 leukemia, in the assay with UO-31 renal, in the assay on MDA-MB-231 breast, in the assay on CAKI-1 renal and with SNB-19 CNS was > 100 µM in each case.

Consider `O=[N+]([O-])c1cc(-c2nnc(C34CC5CC(CC(C5)C3)C4)o2)cc([N+](=O)[O-])c1`, for which the TGI in the assay on U251 CNS is > 100 µM; in the assay with NCI-H23 lung, > 100 µM; in the assay with HOP-62 NSCLC it was > 100 µM; in the assay on HOP-92 NSCLC, 94.6 µM; in the assay with SW-620 colon, 37.8 µM; with SF-268 CNS, > 100 µM. Besides, the TGI in the assay on SK-MEL-2 melanoma, in the assay with A549 NSCLC, with CCRF-CEM leukemia, in the assay with SK-MEL-28 melanoma, with UACC-257 melanoma and in the assay with SF-539 CNS was > 100 µM throughout. The TGI in the assay on MOLT-4 leukemia, with OVCAR-5 ovarian, in the assay with UO-31 renal, in the assay with MDA-MB-231 breast, in the assay with CAKI-1 renal and with SNB-19 CNS was > 100 µM in each case.

With `CC(CO)(CBr)COC(=O)c1cc(Br)c(N)c(Br)c1` (stereo unspecified), the TGI in the assay with U251 CNS is > 100 µM; in the assay with NCI-H23 lung, > 100 µM; in the assay on HOP-62 NSCLC, > 100 µM; with HOP-92 NSCLC, 45.9 µM; in the assay with SW-620 colon, > 100 µM; in the assay with SF-268 CNS it was > 100 µM. The TGI in the assay with SK-MEL-2 melanoma, with A549 NSCLC, in the assay with CCRF-CEM leukemia, in the assay with SK-MEL-28 melanoma, in the assay with UACC-257 melanoma and in the assay on SF-539 CNS was > 100 µM throughout. Further, the TGI with MOLT-4 leukemia was > 100 µM; in the assay on OVCAR-5 ovarian, > 100 µM; in the assay on UO-31 renal, 11.3 µM; in the assay on MDA-MB-231 breast, > 100 µM; with CAKI-1 renal it was > 100 µM; in the assay on SNB-19 CNS, > 100 µM.

For `COc1cc2c(cc1OC)-c1c(oc3cc(OC4OC(CO)C(O)C(O)C4O)c(OC)cc3c1=O)C(O)O2` (stereo unspecified), the TGI with U251 CNS, with NCI-H23 lung, in the assay on HOP-62 NSCLC, with HOP-92 NSCLC, in the assay with SW-620 colon and in the assay with SF-268 CNS was > 100 µM throughout. The TGI in the assay with SK-MEL-2 melanoma, with A549 NSCLC, in the assay with CCRF-CEM leukemia, in the assay on SK-MEL-28 melanoma, in the assay on UACC-257 melanoma and with SF-539 CNS was > 100 µM in each case. Besides, the TGI with OVCAR-5 ovarian, in the assay with UO-31 renal, in the assay with MDA-MB-231 breast, with CAKI-1 renal and with SNB-19 CNS was > 100 µM throughout.

With `C=C1CC2CC(=O)C(O)C(C1)C2` (stereo unspecified), the TGI in the assay with MCF7 breast, in the assay on NCI-H23 lung, in the assay on HOP-62 NSCLC, in the assay with HOP-92 NSCLC, in the assay with SW-620 colon and in the assay on SF-268 CNS was > 100 µM each time. The TGI with A549 NSCLC, in the assay with CCRF-CEM leukemia, with UACC-257 melanoma, in the assay with SF-539 CNS, in the assay on MOLT-4 leukemia and in the assay with OVCAR-5 ovarian was > 100 µM each time. Further, the TGI in the assay with UO-31 renal and with CAKI-1 renal was > 100 µM in each case.

Turning to `COCCN(CCOC)C(=O)COc1c2cc(C(C)(C)C)cc1Cc1cc(C(C)(C)C)cc(c1OCC(=O)N(CCOC)CCOC)Cc1cc(C(C)(C)C)cc(c1OCC(=O)N(CCOC)CCOC)Cc1cc(C(C)(C)C)cc(c1OCC(=O)N(CCOC)CCOC)Cc1cc(C(C)(C)C)cc(c1OCC(=O)N(CCOC)CCOC)C2`, the TGI turned out to be 2.05 µM in the assay on U251 CNS; 6.42 µM in the assay with MCF7 breast; 4.19 µM in the assay on NCI-H23 lung; 5.04 µM in the assay with HOP-62 NSCLC; 11.9 µM with SW-620 colon; 19.1 µM in the assay on SF-268 CNS. Moreover, the TGI in the assay on SK-MEL-2 melanoma was determined as 3.19 µM; in the assay on A549 NSCLC, 11.3 µM; in the assay with SK-MEL-28 melanoma, 18.6 µM; in the assay with UACC-257 melanoma, 6.58 µM; in the assay with SF-539 CNS, 5.9 µM; in the assay on OVCAR-5 ovarian, 18.2 µM. In addition, the values for the TGI in the assay with MDA-MB-231 breast and in the assay on SNB-19 CNS were 5.06 µM and 16.4 µM, respectively.

Consider `CCOC(=O)c1nnsc1NN=C(C)C`, for which the TGI in the assay on U251 CNS, in the assay on NCI-H23 lung, with HOP-62 NSCLC, in the assay on SW-620 colon, in the assay with SF-268 CNS and with SK-MEL-2 melanoma was > 100 µM in each case. Further, the TGI with A549 NSCLC, with SK-MEL-28 melanoma, in the assay on UACC-257 melanoma, with SF-539 CNS, in the assay with MOLT-4 leukemia and in the assay on OVCAR-5 ovarian was > 100 µM throughout. Also, the TGI in the assay with UO-31 renal, in the assay on MDA-MB-231 breast and in the assay on CAKI-1 renal was > 100 µM in each case.

Regarding `CC1(C)CCCCCCC2CC2CCCCCC(C)(C)C1=O` (stereo unspecified), the TGI in the assay with U251 CNS, with NCI-H23 lung, in the assay with HOP-62 NSCLC, in the assay on HOP-92 NSCLC, in the assay on SW-620 colon and with SF-268 CNS was > 100 µM throughout. The TGI was > 100 µM in the assay on SK-MEL-2 melanoma; > 100 µM in the assay on A549 NSCLC; 39.4 µM with CCRF-CEM leukemia; > 100 µM in the assay on SK-MEL-28 melanoma; > 100 µM in the assay on UACC-257 melanoma; > 100 µM with SF-539 CNS. In addition, the TGI with MOLT-4 leukemia, with OVCAR-5 ovarian, with UO-31 renal, with MDA-MB-231 breast, with CAKI-1 renal and in the assay on SNB-19 CNS was > 100 µM in each case.

These data come from PubChem BioAssay (NCI).
